Patent US10548910B2, “Amido-substituted pyridotriazine derivatives useful as HIV integrase inhibitors” (priority 2015, dated 2020)
Read-outs that look alike come from different tables or passages of the source.

Test system: HIV-1
Assay: HIV-1 infection assay (MT4-GFP cells, inhibition of reproductive ratio R0)
Assay type: cell-based
Method: Assessing Antiviral Potency Using An HIV-1 Infection Assay
HIV-1 replication was monitored using MT4-gag-GFP clone D3 (hereafter designate MT4-GFP), which are MT-4 cells modified to harbor a GFP reporter gene, the expression of which is dependent on the HIV-1 expressed proteins tat and rev. Productive infection of an MT4-GFP cell with HIV-1 results in GFP expression approximately 24 h post-infection.
MT4-GFP cells were maintained at 37° C./5% CO2/90% relative humidity in RPMI 1640 supplemented with 10% fetal bovine serum, 100 U/ml penicillin/streptomycin, and 400 μg/ml G418 to maintain the reporter gene. For infections, MT4-GFP cells were placed in the same medium lacking G418 and infected overnight with H9IIIB or NL4-3 virus at an approximate multiplicity of infection of 0.01 in the same incubation conditions. Cells were then washed and resuspended in either RPMI 1640 containing no serum at 1.6×10^5 cells/mL (serum free conditions), 10% normal human serum at 1.6×10^5 cells/mL (10% NHS conditions) or in 100% normal human serum at 2×10^5 cells/mL (100% NHS conditions). Compound plates were prepared by dispensing compounds taken up in DMSO into wells of 384 well poly D lysine-coated plates (0.2 μl/well) using an ECHO acoustic dispenser. Each compound was tested in a 10 point serial 3-fold dilution (typical final concentrations: 4.2 μM-0.21 nM). Controls included no inhibitor (DMSO only) and a combination of three antiviral agents (efavirenz, indinavir, and the integrase strand transfer inhibitor L-002254051 at final concentrations of 4 μM each). Cells were added (50 μL/well) to compound plates and the infected cells were maintained at 37° C./5% CO2/90% relative humidity.
Infected cells were quantified at two time points, ˜48 h and ˜72 h post-infection, by counting the number of green cells in each well using an Acumen eX3 scanner. The increase in the number of green cells over ˜24 h period gives the reproductive ratio, R0, which is typically 5-15 and has been shown experimentally to be in logarithmic phase (data not shown). Inhibition of R0 is calculated for each well, and IC50 value was determined using non-linear 4-parameter curve fitting.

[1] = Human immunodeficiency virus 1, NL43, MT4-GFP cells infected with H9IIIB or NL4-3 virus, 0% NHS (serum free conditions), read-out: VIKING IP (nM) with 0% NHS
[2] = MT4-GFP cells infected with H9IIIB or NL4-3 virus, 100% normal human serum, read-out: VIKING IP (nM) with 100% NHS
[3] = Human immunodeficiency virus 1, NL43, MT4-GFP cells infected with H9IIIB or NL4-3 virus, 100% normal human serum, read-out: VIKING IP (nM) with 100% NHS
[4] = MT4-GFP cells infected with H9IIIB or NL4-3 virus, 0% NHS (serum free conditions), read-out: VIKING IP (nM) with 0% NHS

Row | Structure (SMILES) | IC50 [1] | IC50 [2] | IC50 [3] | IC50 [4] | IC50 (Human immunodeficiency virus 1, NL43, read-out: VIKING IP (nM) with 0% NHS)
1 | CN1C(=O)c2c(O)c(=O)c(C(=O)NCc3ccc(F)cc3F)cn2N(C)C12CC[C@H](P(=O)(O)O)C2 (single isomer, unassigned) [Compound 25] | 190 nM | 1070 nM |  |  | 
2 | CCN1C(=O)c2c(O)c(=O)c(C(=O)NCc3ccc(F)cc3F)cn2N(C)C12CCC(P(=O)(O)O)C2 (stereo not shown) [Compound 36] | 187 nM |  | 583 nM |  | 
3 | CCOP(=O)(OCC)[C@H]1CCC2(C1)N(C)C(=O)c1c(O)c(=O)c(C(=O)NCc3ccc(F)cc3F)cn1N2C (single isomer, unassigned) [Compound 24] | 9.1 nM |  | 4120 nM |  | 
4 | CN1C(=O)c2c(O)c(=O)c(C(=O)NCc3ccc(F)cc3F)cn2N(CCP(=O)(O)O)C12CCCC2 [Compound 4] | 32.2 nM |  | 2750 nM |  | 
5 | CN1C(=O)c2c(O)c(=O)c(C(=O)NCc3ccc(F)cc3F)cn2N(C)C12CC[C@@H](P(=O)(O)O)C2 (single isomer, unassigned) [Compound 31] |  | 1070 nM |  | 206 nM | 
6 | CCOP(=O)(CCN1n2cc(C(=O)NCc3ccc(F)cc3F)c(=O)c(O)c2C(=O)N(C)C12CCCC2)OCC [Compound 2] | 2.8 nM |  | 81.1 nM |  | 
7 | CC(C)OC(=O)OCOP(=O)(OCOC(=O)OC(C)C)[C@H]1CCC2(C1)N(C)C(=O)c1c(O)c(=O)c(C(=O)NCc3ccc(F)cc3F)cn1N2C (single isomer, unassigned) [Compound 23] |  | 3.6 nM |  | 0.28 nM | 
8 | CCOP(=O)(OCC)[C@@H]1CCC2(C1)N(C)C(=O)c1c(O)c(=O)c(C(=O)NCc3ccc(F)cc3F)cn1N2C (single isomer, unassigned) [Compound 30] |  | 1050 nM |  | 13.7 nM | 
9 | CC(C)OC(=O)OCOP(=O)(OCOC(=O)OC(C)C)[C@@H]1CCC2(C1)N(C)C(=O)c1c(O)c(=O)c(C(=O)NCc3ccc(F)cc3F)cn1N2C (single isomer, unassigned) [Compound 32] |  | 7 nM |  | 0.9 nM | 
10 | CC(C)OC(=O)OCOP(=O)(CCN1n2cc(C(=O)NCc3ccc(F)cc3F)c(=O)c(O)c2C(=O)N(C)C12CCCC2)OCOC(=O)OC(C)C [Compound 7] | 0.2 nM |  | 2.1 nM |  | 
11 | CN1C(=O)c2c(O)c(=O)c(C(=O)NCc3ccc(F)cc3F)cn2N(C)C12CC[C@H](P(=O)(O)O)C2 (single isomer, unassigned) [Compound 22] |  | 340 nM |  | 120 nM | 
12 | CCOP(=O)(OCC)C1CCC2(C1)N(CC)C(=O)c1c(O)c(=O)c(C(=O)NCc3ccc(F)cc3F)cn1N2C (stereo not shown) [Compound 35] | 9.4 nM |  | 126 nM |  | 
13 | CCOP(=O)(OCC)[C@H]1CCC2(C1)N(C)C(=O)c1c(O)c(=O)c(C(=O)NCc3ccc(F)cc3F)cn1N2C (stereo partly shown) [Compound 21] | 5.3 nM |  | 32.7 nM |  | 
14 | CC(C)OC(=O)OCOP(=O)(OCOC(=O)OC(C)C)[C@@H]1CCC2(C1)N(C)C(=O)c1c(O)c(=O)c(C(=O)NCc3ccc(F)cc3F)cn1N2C (single isomer, unassigned) [Compound 29] |  |  | 4.8 nM | 0.2 nM | 
15 | CC(C)OC(=O)OCOP(=O)(O)CCN1n2cc(C(=O)NCc3ccc(F)cc3F)c(=O)c(O)c2C(=O)N(C)C12CCCC2 [Compound 8] | 2.3 nM |  | 660 nM |  | 
16 | CC(C)OC(=O)OCOP(=O)(OCOC(=O)OC(C)C)[C@H]1CCC2(C1)N(C)C(=O)c1c(O)c(=O)c(C(=O)NCc3ccc(F)cc3F)cn1N2C (single isomer, unassigned) [Compound 26] |  | 35.9 nM |  | 1 nM | 
17 | CCN1C(=O)c2c(O)c(=O)c(C(=O)NCc3ccc(F)cc3F)cn2N(CCP(=O)(O)O)C12CCCC2 [Compound 34] | 15.4 nM |  | 2490 nM |  | 
18 | CCN1C(=O)c2c(O)c(=O)c(C(=O)NCc3ccc(F)cc3F)cn2N(C)C12CCC(P(=O)(OCOC(=O)OC(C)C)OCOC(=O)OC(C)C)C2 (stereo not shown) [Compound 37] | 0.2 nM |  | 2.8 nM |  | 
19 | CCOP(=O)(OCC)[C@@H]1CCC2(C1)N(C)C(=O)c1c(O)c(=O)c(C(=O)NCc3ccc(F)cc3F)cn1N2C (single isomer, unassigned) [Compound 27] |  | 78.2 nM |  | 5.6 nM | 
20 | CN1C(=O)c2c(O)c(=O)c(C(=O)NCc3ccc(F)cc3F)cn2N(C)C12CC[C@@H](P(=O)(O)O)C2 (single isomer, unassigned) [Compound 28] | 221 nM | 420 nM |  |  | 
21 | CCOP(=O)(CCN1n2cc(C(=O)NCc3ccc(F)cc3F)c(=O)c(O)c2C(=O)N(CC)C12CCCC2)OCC [Compound 33] | 4.4 nM |  | 163 nM |  | 
22 | CCN1C(=O)c2c(O)c(=O)c(C(=O)NCc3ccc(F)cc3F)cn2N(CCP(=O)(N[C@@H](C)C(=O)OC(C)C)Oc2ccccc2)C12CCCC2 (stereo partly shown) [Compound 9] |  |  |  |  | 3.8 nM
